{
  "source": "patent US5475015A",
  "about": "“Benzimidazole derivatives, their preparation and pharmaceutical use” (NeuroSearch A/S, priority 1993, dated 1995)",
  "key": {"[1]": {"test_system": "calf aortic smooth muscle cells", "experiment": "Whole-cell current clamp recording of membrane potential", "assay_type": "cell-based", "settings": "10 μM to the bath", "description": "(§1) All experiments were performed with patch-clamp technique (Hamill et al., Pflugers Arch. 391, 85-100 (1981)). The ion composition of the internal solution was (in mM) 140 KCl, 1 CaCl2, 1 MgCl2, 2 EGTA, 10 HEPES and the external solution contained 140 NaCl, 4 KCl, 2 CaCl2, 1 MgCl2 and 10 HEPES.\nThe membrane potential of calf aortic smooth muscle cells was determined in whole-cell recordings using current clamp mode (HEKA EPC-9 patch-clamp amplifier). Due to the high-resistance seal and the large size of these cells the recorded membrane potential stayed stable for periods of 30-60 min, although at somewhat depolarized values (-58--22 mV). Administration of for example 1-(5-trifluoromethyl-2-hydroxyphenyl)-5-trifluoromethyl-1,3-dihydro-2H-benzimidazol-2-one (10 μM) to the bath hyperpolarized the cells after a delay of 1-3 min. The average hyperpolarization was -20 mV (SD=-9 mV, n=7), and the effect was largest in the cells being most depolarized prior to administration of the compound.\nThe equilibrium potential for K+, Cl-, and Na+ in these experiments were -90 mV, 0 mV, and +90 mV, respectively (cf. ion composition above). Thus, since potassium is the only ion having a reversal potential more negative than the resting membrane potential the observed hyperpolarization induced by the test compound must be explained through an increased potassium conductance."}, "[2]": {"test_system": "BK channel", "experiment": "Single channel experiments, inside-out patches of cerebellar granule cell membrane", "assay_type": "cell-based", "settings": "3 μM", "description": "as §1"}, "[3]": {"test_system": "delayed rectifier K+ channel", "experiment": "Single channel experiments, inside-out patches of cerebellar granule cell membrane: delayed rectifier", "assay_type": "cell-based", "settings": "3 μM", "description": "as §1\n(§2) In inside-out patches of cerebellar granule cell membrane single BK channels were activated by for example 5-trifluoromethyl1-(5-trifluoromethyl-2-hydroxyphenyl)-1,3-dihydro-2H-benzimidazole-2-one (3 μM). […] No effect was found on the delayed rectifier K+ channel or on the Cl- channels also present in the patches."}, "[4]": {"test_system": "Cl- channels", "experiment": "Single channel experiments, inside-out patches of cerebellar granule cell membrane: Cl- channels", "assay_type": "cell-based", "settings": "3 μM", "description": "as §1, §2"}, "[5]": {"test_system": "BK channel", "experiment": "Single channel experiments in cultured bovine aortic smooth muscle cells", "assay_type": "cell-based", "settings": "3 μM", "description": "as §1"}, "[6]": {"test_system": "acetylcholine-contracted guinea-pig ileum", "experiment": "Guinea-pig ileum experiment (relaxation of acetylcholine-contracted ileum)", "description": "The compound, 5-trifluoromethyl-1-(5-trifluoromethyl-2-hydroxyphenyl)-1,3-dihydro-2H-benzimidazole-2-one, has been studied for its ability to relax acetylcholine-contracted guinea-pig ileum. The smooth muscle cells of the ileum express many BK channels and the model predicts relaxing effects on the gastrointestinal or urogenital tracts. […] The effect of 30 μM compound is reversed by the BK channel blocker TEA+ (1-3 mM), confirming that the relaxing effect is mediated via BK channels.\nMethod: Ileum from guinea-pigs are isolated and mounted in an isometric contraction chamber. It is bathed in a physiological Krebs solution at 98° F. The ileum is precontracted with increasing concentrations of acetylcholine (0.015-5.0 μM). The contractions are reversed by including the compound in the bathing solution."}, "[7]": {"test_system": "Guinea pig trachea", "experiment": "Trachea experiment (vagus nerve stimulated pressure increase)", "text": "The compound, 5-trifluoromethyl-1-(5-trifluoromethyl-2-hydroxyphenyl)-1,3-dihydro-2H-benzimidazole-2-one, has been studied in a trachea model in which relaxation predicts anti-asthmatic potential.\nMethod: Guinea pig trachea is isolated with intact vagus nerve. Tubes are inserted into both ends and ligated tightly so the pressure in the fluid-filled lumen can be monitored. Electrical stimulation of the vagus nerve leads to a contraction and a pressure increase. The difference in electrically-stimulated pressure increase in the absence and presence of compound is measured."}, "[8]": {"test_system": "cocaine induced hypermotility", "experiment": "Cocaine motility test", "assay_type": "in vivo, NMRI mice", "description": "The compound, 5-trifluoromethyl-1-(5-trifluoromethyl-2-hydroxyphenyl)-1,3-dihydro-2H-benzimidazole-2-one, has been studied in the cocaine motility test. Cocaine induces hypermotility due to an inhibition of dopamine reuptake. The test is recognized as a test predicting anti-psychotic activity.\nMethod: Two female NMRI mice (20-25 g) are placed in each test box (normal transparent plexiglas cage, w, l, h=21×39×19 cm ) in the test room for at least 16 hours with food and water ad libitum before the test in order for the animals to habituate to the situation. The test compound is administered i.p. 15 min before saline or 25 mg/kg cocaine i.p. to 32 mice (16 boxes) per dose. Food and water are withdrawn, and the motility is measured as the number of interrupted infrared photo-beams (8 per box placed 5 cm apart and 3 cm over the bottom of the cage) in the next 120 min."}},
  "data": [
    {"smiles": "O=c1[nH]c2cc(C(F)(F)F)ccc2n1-c1cc(C(F)(F)F)ccc1O", "note": "[Example 6, 1-(2-Hydroxy-5-trifluoromethylphenyl)-5-trifluoromethyl-1,3-dihydro-2H-benzimidazol-2-one]", "values": [
      {"measurement": "delay before hyperpolarization of the cells", "setting": "[1]", "result": "1 to 3", "unit": "min"},
      {"measurement": "average hyperpolarization", "setting": "[1]; current clamp, SD=-9 mV, n=7", "result": -20, "unit": "mV"},
      {"measurement": "increase of the open probability of the BK channel", "setting": "[2]", "result": "several hundred percent"},
      {"measurement": "effect on the delayed rectifier K+ channel", "setting": "[3]", "result": "No effect"},
      {"measurement": "effect on the Cl- channels", "setting": "[4]", "result": "No effect"},
      {"measurement": "activation of the BK channel", "setting": "[5]", "result": "significantly activated"},
      {"measurement": "effect of BK channel blocker TEA+ on the relaxing effect", "setting": "[6]; 30 μM compound, TEA+ 1-3 mM", "result": "reversed"},
      {"measurement": "relaxation of acetylcholine-contracted ileum", "setting": "[6]; 3-30 μM", "result": "relaxes the ileum in a dose-dependent way"},
      {"measurement": "potentiation of the relaxing effect of lemakalim", "setting": "[7]; 10 μM compound", "result": 10, "unit": "x"},
      {"measurement": "relaxation of trachea", "setting": "[7]; 10-100 μM", "result": "relaxes trachea in a dose-dependent way"},
      {"measurement": "effect of compound by itself on motility", "setting": "[8]; 30 mg/kg, without cocaine", "result": "weak hyperactivity"},
      {"measurement": "antagonism of cocaine induced hypermotility", "setting": "[8]; 1-10 mg/kg i.p. 15 min before 25 mg/kg cocaine i.p., mice, motility over 120 min", "result": "antagonizes cocaine induced hypermotility"}
    ]}
  ]
}
